Assay results published in patent US20240217997A1 (priority 2021, published 2024).
In brackets after ≈: the same amount, converted by molar mass. Read-outs that look alike come from different tables or passages of the source.

Tests used:
[1] = test system: Mycobacterium tuberculosis; experiment: microbe, parasite or virus in culture
P. falciparum DXR = P. falciparum DXR (Plasmodium falciparum, UniProt Q8IKG4); details: cited from earlier work
Plasmodium falciparum = Plasmodium falciparum minimum inhibitory concentration (MIC), Table 4; assay type: cell-based

Sequence of P. falciparum DXR (Q8IKG4 73-488): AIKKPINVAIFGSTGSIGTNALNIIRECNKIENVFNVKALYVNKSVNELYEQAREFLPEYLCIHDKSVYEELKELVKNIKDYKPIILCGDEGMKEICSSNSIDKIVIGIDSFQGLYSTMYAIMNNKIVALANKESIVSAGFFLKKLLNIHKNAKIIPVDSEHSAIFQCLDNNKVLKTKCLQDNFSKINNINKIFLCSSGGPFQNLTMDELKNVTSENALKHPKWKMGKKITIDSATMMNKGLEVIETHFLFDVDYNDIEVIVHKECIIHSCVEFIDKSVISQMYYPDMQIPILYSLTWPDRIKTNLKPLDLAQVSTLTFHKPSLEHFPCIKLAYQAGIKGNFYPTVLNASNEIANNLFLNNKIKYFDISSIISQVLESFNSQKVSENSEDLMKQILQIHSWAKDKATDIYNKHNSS

NNC(=O)c1ccncc1 [Isoniazid]
MIC ([1]; 168 h, read-out: 1-week MIC 7H9/glucose/BSA/Tx): 0.02 µg/mL (≈ 0.146 µM) | MIC ([1]; 168 h, read-out: 1-week MIC 7H9/glucose/casitone/Tx): 0.02 µg/mL (≈ 0.146 µM) | MIC ([1]; 168 h, read-out: 1-week MIC 7H9/glycerol/glucose/BSA/Tween): 0.03 µg/mL (≈ 0.219 µM) | MIC ([1]; 336 h, read-out: 2-week MIC 7H9/glucose/BSA/Tx): 0.03 µg/mL (≈ 0.219 µM) | MIC ([1]; 336 h, read-out: 2-week MIC 7H9/glucose/casitone/Tx): 0.02 µg/mL (≈ 0.146 µM) | MIC ([1]; 336 h, read-out: 2-week MIC 7H9/glycerol/glucose/BSA/Tween): 0.039 µg/mL (≈ 0.284 µM)

CC(=O)N(O)CCCP(=O)(O)O [FR900098]
IC50 (P. falciparum DXR): 24 nM

O=CN(O)CCCP(=O)(O)O [Fosmidomycin]
MIC, Mean (Plasmodium falciparum; Mean of Runs 1-3): 0.9075 µg/mL (≈ 4.96 µM) | MIC, Run 1 (Plasmodium falciparum; Run 1): 1.391 µg/mL (≈ 7.6 µM) | MIC, Run 2 (Plasmodium falciparum; Run 2): 0.7607 µg/mL (≈ 4.15 µM) | MIC, Run 3 (Plasmodium falciparum; Run 3): 0.5708 µg/mL (≈ 3.12 µM)
